From patent publication US20260191998A1, “INDOLE PHTHALOCYANINE COMPOUND, PREPARATION METHOD THEREFOR, AND USE THEREOF IN TUMOR DIAGNOSIS IMAGING” (JIANGSU YAHONG MEDITECH CO., LTD., priority 2022, published 2026)
Where a name gives a salt, the structure may show the parent alone.

Assays:
[1] = system: human bladder cancer cell line UM-UC-3; assay: In vitro imaging effect test with addition of BSP, UM-UC-3; assay type: cell-based; conditions: 250 μM BSP, compound 1-20 μM with surfactin 1:5, 30 minutes
Description: UM-UC-3 (1.5×10^4/well) were cultured in EMEM medium (containing 10% fetal bovine serum (FBS) and 1% antibiotics (100 U/mL penicillin and 100 U/mL streptomycin)) and seeded in a 96-well plate in advance. The plate was cultured in a 5% CO2 cell culture incubator at 37° C. overnight. The following day, the culture medium was sucked away, and 250 μM of BSP was added to the test wells and preconditioned for 10 minutes, followed by addition of the culture medium containing an appropriate concentration (1-20 μM) of the compound and surfactin (the molar ratio of the test compound to the surfactin being 1:5) with or without 250 μM of BSP, and then incubated for 30 minutes. The cells were rinsed three times with PBS solution, and the near-infrared fluorescence intensity in the bladder cancer cells was observed using an integrated fluorescence microscopic imaging system from Keyence. The conditions for near-infrared photography were Ex=775/50 nm and Em=845/55 nm.

[2] = UV-VIS absorption spectra (optical property test); assay type: physicochemical; conditions: 10 μM, DMSO solution; for Absorbance × 10^4: at maximum absorption peak
Description: The UV-VIS absorption spectra of the compounds (10 μM, DMSO solution) were detected using Shimadzu UV2600 spectrophotometer, and the maximum absorption peak and absorbance of each compound were obtained.

| Compound | Uptake by UM-UC-3 with or without BSP [1] | Absorption peak [2] [nm] | Absorbance × 10^4 [2] |
| --- | --- | --- | --- |
| CC[N+]1=C(/C=C/C2=C(Cl)C(=C/C=C3/N(CCCCCC(=O)Oc4ccccc4)c4ccccc4C3(C)C)/CCC2)C(C)(C)c2ccccc21 [Example 12a, 2-((E)-2-((E)-2-chloro-3-(2-((E)-3,3-dimethyl-1-(6-oxo-6-phenoxyhexyl)indolin-2-ylidene)ethenyl)cyclohex-1-en-1-yl)ethenyl)-1-ethyl-3,3-dimethyl-3H-indol-1-ium chloride, reference compound] | may be weakened or enhanced by BSP | – | – |
| CC[N+]1=C(/C=C/C2=C(Cl)C(=C/C=C3/N(CCCCCC(=O)Oc4ccccc4)c4ccc5ccccc5c4C3(C)C)/CCC2)C(C)(C)c2c1ccc1ccccc21 [Example 2] | may be weakened or enhanced by BSP | 833.5 | 2.09 |
| 5-carboxy-2-((E)-2-((E)-2-chloro-3-(2-((E)-3,3-dimethyl-1-(2-(3-oxo-3-phenoxypropoxy)ethyl)indolin-2-ylidene)ethenyl)cyclohex-1-en-1-yl)ethenyl)-1-ethyl-3,3-dimethyl-3H-indol-1-ium 2,2,2-trifluoroacetate [Example 123] | – | – | 1.3 |
| CCN1/C(=C/C=C2\CCCC(/C=C/C3=[N+](CC)c4ccccc4C3(C)C)=C2NCCCCCC(=O)O)C(C)(C)c2ccccc21 [Example 13, 2-((E)-2-((E)-2-((5-carboxypentyl)amino)-3-(2-((E)-1-ethyl-3,3-dimethylindolin-2-ylidene)ethenyl)cyclohex-1-en-1-yl)ethenyl)-1-ethyl-3,3-dimethyl-3H-indol-1-ium Formate] | – | 632 | 0.68 |
| CCN1/C(=C/C=C2\C[N+](C)(C)CC(/C=C/C3=[N+](CC)c4ccccc4C3(C)C)=C2Cl)C(C)(C)c2ccccc21 [Example 18, 2-((E)-2-((E)-4-chloro-5-(2-((E)-1-ethyl-3,3-dimethylindolin-2-ylidene)ethenyl)-1,1-dimethyl-1,2,5,6-tetrahydropyridin-1-ium-3-yl)ethenyl)-1-ethyl-3,3-dimethyl-3H-indol-1-ium Ditrifluoroacetate] | – | 764.5 | 2.12 |
| 2-((E)-2-((E)-2-chloro-3-(2-((E)-3,3-dimethyl-1-(2-((5-oxo-5-phenoxypentyl)oxy)ethyl) indolin-2-ylidene)ethenyl)cyclohex-1-en-1-yl)ethenyl)-3,3-dimethyl-1-(2-((5-oxo-5-phenoxypentyl)oxy)ethyl)-3H-indol-1-ium [Example 37B] | – | 801 | 1.563 |
| CC1(C)C(/C=C/C2=C(Cl)C(=C/C=C3/N(CCCCCC(=O)O)c4ccccc4C3(C)C)/CCC2)=[N+](CCO)c2ccccc21 [Example 49, 2-((E)-2-((E)-3-(2-((E)-1-(5-carboxypentyl)-3,3-dimethylindolin-2-ylidene)ethenyl)-2-chlorocyclohex-1-en-1-yl)ethenyl)-1-(2-hydroxyethyl)-3,3-dimethyl-3H-indol-1-ium Chloride] | – | – | 2.3 |
| C[N+]1=C(/C=C/C2=C(Cl)C(=C/C=C3/N(CCCCCC(=O)Nc4ccccc4)c4ccccc4C3(C)C)/CC2)C(C)(C)c2ccccc21 [Example 83, 2-((E)-2-((E)-2-chloro-3-(2-((E)-3,3-dimethyl-1-(6-oxo-6-(anilino)hexyl)indol-2-methylene)ethylidene)cyclopent-1-en-1yl)ethenyl)-1,3,3-trimethyl-3H-indol-1-ium Chloride] | – | 820 | 3.079 |
| CC[N+]1=C(/C=C/C2=C(Cl)C(=C/C=C3/N(CCCCCC(=O)O)c4ccccc4C3(C)C)/CCC2)C(C)(C)c2cc(C(=O)O)ccc21.[Cl-] [Example 92] | – | – | 1.49 |
| C[n+]1cccc2c1N=C(/C=C/C1=C(Cl)C(=C/C=C3/N(CCCCCC(=O)O)c4ccccc4C3(C)C)/CC1)C2(C)C [Example 63, 2-((E)-2-((E)-3-(2-((E)-1-(5-carboxypentyl)-3,3-dimethylindolin-2-ylidene)ethenyl)-2-chlorocyclopent-1-en-1-yl)ethenyl)-3,3,7-trimethyl-3H-pyrrolo[2,3-b]pyridin-7-ium Chloride] | – | – | 0.31 |
| C[N+]1=C(/C=C/C2=C(Cl)C(=C/C=C3/N(CCOCCOCCOCc4ccccc4)c4ccccc4C3(C)C)/CCC2)C(C)(C)c2ccccc21 [Example 56, 2-((E)-2-((E)-3-(2-((E)-1-(2-(2-(2-(benzyloxy)ethoxy)ethoxy)ethyl)-3,3-dimethylindolin-2-ylidene)ethenyl)-2-chlorocyclohex-1-en-1-yl)ethenyl)-1,3,3-trimethyl-3H-indol-1-ium 2,2,2-trifluoroacetate] | – | – | 1.85 |
| CC1(C)C(/C=C/C2=C(Cl)C(=C/C=C3/N(CCCCCC(=O)Oc4ccccc4)c4ccccc4C3(C)C)/C[N+](C)(C)C2)=[N+](CCCCCC(=O)Oc2ccccc2)c2ccccc21 [Example 14, 2-((E)-2-((E)-4-chloro-5-(2-((E)-3,3-dimethyl-1-(6-oxo-6-phenoxyhexyl)indolin-2-ylidene)ethenyl)-1,1-dimethyl-1,2,5,6-tetrahydropyridin-1-ium-3-yl)ethenyl)-3,3-dimethyl-1-(6-oxo-6-phenoxyhexyl)-3H-indol-1-ium Dichloride] | – | 767.5 | 1.71 |
| CC[N+]1=C(/C=C/C2=C(Cl)C(=C/C=C3/N(CCCCCC(=O)Oc4ccccc4)c4ccccc4C3(C)C)/CC2)C(C)(C)c2cc(S(=O)(=O)O)ccc21 [Example 22, 2-((E)-2-((E)-2-chloro-3-(2-((E)-3,3-dimethyl-1-(6-oxo-6-phenoxyhexyl)indolin-2-ylidene)ethenyl)cyclopent-1-en-1-yl)ethenyl)-1-ethyl-3,3-dimethyl-5-sulfonyl-3H-indol-1-ium Chloride] | – | 827 | 1.97 |
| CC[N+]1=C(/C=C/C2=C(Br)C(=C/C=C3/N(CCCCCC(=O)O)c4ccccc4C3(C)C)/CCC2)C(C)(C)c2ccccc21.[Cl-] [Example 96] | – | – | 2.45 |
| CCN1/C(=C/C=C2\CCCC(/C=C/C3=[N+](CC)c4ccccc4C3(C)C)=C2Sc2ccccc2)C(C)(C)c2ccccc21.[Cl-] [Example 108] | – | 805.5 | 1.752 |
| CC[N+]1=C(/C=C/C2=C(Oc3ccc(C#N)cc3)C(=C/C=C3/N(CCCCCC(=O)Oc4c(C)cccc4C)c4ccccc4C3(C)C)/CCC2)C(C)(C)c2ccccc21 [Example 114] | – | – | 2.46 |
| CC[N+]1=C(/C=C/C2=C(Cl)C(=C/C=C3/N(CCCCCC(=O)O)c4ccc5ccccc5c4C3(C)C)/CC2)C(C)(C)c2c1ccc1ccccc21 [Example 1B, 2-((E)-2-((E)-3-((E)-2-(3-(5-carboxypentyl)-1,1-dimethyl-1,3-dihydro-2H-benzo[e]indol-2-ylidene)ethenyl)-2-chlorocyclopent-1-en-1-yl)ethenyl)-3-ethyl-1,1-dimethyl-1H-benzo[e]indol-3-ium Chloride] | – | 859.5 | 2.03 |
| CC[N+]1=C(/C=C/C2=C(Cl)C(=C/C=C3/N(CCCCCC(=O)Oc4ccccc4)c4ccc5ccccc5c4C3(C)C)/CC2)C(C)(C)c2c1ccc1ccccc21 [Example 1A, 2-((E)-2-((E)-2-chloro-3-((E)-2-(1,1-dimethyl-3-(6-oxo-6-phenoxyhexyl)-1,3-dihydro-2H-benzo[e]indol-2-ylidene)ethenyl)cyclopent-1-en-1-yl)ethenyl)-3-ethyl-1,1-dimethyl-1H-benzo[e]indol-3-ium Chloride] | – | 860 | 2.82 |
| C[N+]1=C(/C=C/C2=C(Cl)C(=C/C=C3/N(CCOCCOCCC(=O)Oc4ccccc4)c4ccccc4C3(C)C)/CCC2)C(C)(C)c2ccccc21 [Example 51, 2-((E)-2-((E)-2-chloro-3-(2-((E)-3,3-dimethyl-1-(2-(2-(3-oxo-3-phenoxypropoxy)ethoxy)ethyl)indolin-2-ylidene)ethenyl)cyclohex-1-en-1-yl)ethenyl)-1,3,3-trimethyl-3H-indol-1-ium Formate] | – | – | 1.9 |
| CC[N+]1=C(/C=C/C2=C(Oc3ccc(S(=O)(=O)O)cc3)C(=C/C=C3/N(CCCCCC(=O)Oc4ccccc4)c4ccccc4C3(C)C)/CCC2)C(C)(C)c2ccccc21 [Example 20, 2-((E)-2-((E)-3-(2-((E)-3,3-dimethyl-1-(6-oxo-6-phenoxyhexyl)indol-2-methylene)ethenyl)-2-(4-sulfophenoxy)cyclohex-1-en-1-yl)ethenyl)-1-ethyl-3,3-dimethyl-3H-indol-1-ium Formate] | – | 782 | 2.60 |
| CC[N+]1=C(/C=C/C2=C(Cl)C(=C/C=C3/N(CCOCCCCCC(=O)Oc4ccccc4)c4ccccc4C3(C)C)/CCC2)C(C)(C)c2ccccc21 [Example 35, 2-((E)-2-((E)-2-chloro-3-(2-((E)-3,3-dimethyl-1-(2-((6-oxo-6-phenoxyhexyl)oxy)ethyl)indolin-2-ylidene)ethenyl)cyclohex-1-en-1-yl)ethenyl)-1-ethyl-3,3-dimethyl-3H-indol-1-ium 2,2,2-trifluoroacetate] | – | 794.5 | 2.21 |
| CC[N+]1=C(/C=C/C2=C(Cl)C(=C/C=C3/N(CCCCCC(=O)Oc4ccccc4)c4ccccc4C3(C)C)/C[N+](C)(C)C2)C(C)(C)c2ccccc21 [Example 28] | – | 766 | 1.856 |
